Key:
human NaP2b (SLC34A2) = target: T1, human NaP2b (SLC34A2) (Homo sapiens, UniProt O95436); assay: Inhibition of NaP2b-mediated Pi (33P) uptake in transfected HEK293 cells, human NaP2b; type: cell-based; details: read-out: pIC50 range for human NaP2b (converted)
T1 construct: host or cells: HEK293
T1 sequence (O95436 1-690): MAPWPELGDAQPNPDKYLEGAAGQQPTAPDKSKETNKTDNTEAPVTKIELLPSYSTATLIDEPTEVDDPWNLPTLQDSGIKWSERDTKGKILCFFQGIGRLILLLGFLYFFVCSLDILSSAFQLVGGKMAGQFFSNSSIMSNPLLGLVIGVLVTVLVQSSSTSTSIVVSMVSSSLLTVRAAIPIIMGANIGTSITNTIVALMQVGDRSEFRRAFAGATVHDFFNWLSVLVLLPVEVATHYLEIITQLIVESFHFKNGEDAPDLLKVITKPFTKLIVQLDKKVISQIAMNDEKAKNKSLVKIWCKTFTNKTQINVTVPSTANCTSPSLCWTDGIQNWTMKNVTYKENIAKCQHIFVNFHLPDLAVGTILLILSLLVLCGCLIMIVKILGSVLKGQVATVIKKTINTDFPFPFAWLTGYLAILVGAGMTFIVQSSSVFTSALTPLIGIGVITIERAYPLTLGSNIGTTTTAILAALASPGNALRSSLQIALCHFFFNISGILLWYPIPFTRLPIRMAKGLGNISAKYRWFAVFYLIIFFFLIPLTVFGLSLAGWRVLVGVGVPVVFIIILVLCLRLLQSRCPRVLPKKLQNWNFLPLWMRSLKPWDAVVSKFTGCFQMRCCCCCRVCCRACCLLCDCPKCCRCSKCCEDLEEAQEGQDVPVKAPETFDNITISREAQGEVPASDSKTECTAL
Outline: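 Uptake of 33P-phosphate (100 uM KH2PO4 carrier, sodium vs choline buffer, pH 7.4) measured after 3-30 min at room temperature, with test compound at twelve concentrations from 0.1 nM to 30 uM in duplicate. Cells were HEK293 transfected with mutated human NaP2b (Thr insertion after 37, N39D) and treated with a PiT-silencing agent. pIC50 values from scintillation counts.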

rat NaP2b (SLC34A2) = target: T2, rat NaP2b (SLC34A2) (Rattus norvegicus, UniProt Q9JJ09); assay: Inhibition of NaP2b-mediated Pi (33P) uptake in transfected HEK293 cells, rat NaP2b; type: cell-based; details: 33P Pi uptake, 0.1 mM phosphate, value given as pIC50 range
T2 construct: host or cells: HEK293
T2 sequence (Q9JJ09 1-695): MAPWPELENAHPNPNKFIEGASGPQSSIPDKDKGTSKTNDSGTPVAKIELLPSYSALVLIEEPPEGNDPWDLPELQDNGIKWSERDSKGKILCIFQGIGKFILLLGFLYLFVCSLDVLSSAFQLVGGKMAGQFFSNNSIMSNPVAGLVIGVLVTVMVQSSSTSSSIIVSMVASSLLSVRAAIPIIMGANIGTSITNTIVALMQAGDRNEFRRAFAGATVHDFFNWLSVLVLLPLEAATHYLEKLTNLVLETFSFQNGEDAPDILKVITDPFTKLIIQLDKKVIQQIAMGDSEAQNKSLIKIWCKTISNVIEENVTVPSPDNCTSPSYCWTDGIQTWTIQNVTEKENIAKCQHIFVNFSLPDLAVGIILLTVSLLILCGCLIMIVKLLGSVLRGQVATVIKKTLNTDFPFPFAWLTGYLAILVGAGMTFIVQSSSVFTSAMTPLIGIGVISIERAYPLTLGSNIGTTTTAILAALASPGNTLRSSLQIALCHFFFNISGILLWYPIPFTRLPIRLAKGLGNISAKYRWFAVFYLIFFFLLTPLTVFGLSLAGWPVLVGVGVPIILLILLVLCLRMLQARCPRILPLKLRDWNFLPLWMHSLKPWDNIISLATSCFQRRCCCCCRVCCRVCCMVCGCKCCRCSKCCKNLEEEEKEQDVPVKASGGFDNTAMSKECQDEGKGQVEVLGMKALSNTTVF
Outline: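 The cells transiently expressed NaP2b after Lipofectamine transfection. Each compound was run in duplicate over twelve concentrations, 0.1 nM–30 uM.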

Row | Compound | IC50 (human NaP2b (SLC34A2)) [nM] | IC50 (rat NaP2b (SLC34A2)) [nM]
1 | CCN(CC)c1ccc(NC(=O)c2cccc(CCCOCCOCCOCCOCCC(=O)N3CCN(S(=O)(=O)c4ccc(C(=O)O)cc4)CC3)c2)c(-c2cc(C(=O)NCc3cccc(C(F)(F)F)c3)ccn2)c1 [Example 290, 4-(4-(16-(3-(4-(diethylamino)-2-(4-(3-(trifluoromethyl)benzylcarbamoyl)pyridin-2-yl)phenylcarbamoyl)phenyl)-4,7,10,13-tetraoxahexadecane)piperazin-1-ylsulfonyl)benzoic acid] | 1000 to 7940 | 10000 to 31600
2 | O=C(CCSCc1cccc(C(=O)Nc2ccc(N3CCCCC3)cc2-c2cc(C(=O)NCc3cccc(C(F)(F)F)c3)ccn2)c1)NCCOCCOCCOCCOCCOCCOCCOCCO [Example 4.19, 2-(2-(3-(29-Hydroxy-5-oxo-9,12,15,18,21,24,27-heptaoxa-2-thia-6-azanonacosyl)benzamido)-5-(piperidin-1-yl)phenyl)-N-(3-(trifluoromethyl)benzyl)isonicotinamide] | 1000 to 7940 | 1000 to 7940
3 | CCN(CC)c1ccc(NC(=O)c2cccc(COCCOCCOCCOCCOCCOCCN(C)CCN3CCOCC3)c2)c(-c2cc(C(=O)NCc3cccc(C(F)(F)F)c3)ccn2)c1 [Example 179, 2-(5-(diethylamino)-2-(3-(20-methyl-22-morpholino-2,5,8,11,14,17-hexaoxa-20-azadocosyl)benzamido)phenyl)-N-(3-(trifluoromethyl)benzyl)isonicotinamide] | 1000 to 7940 | 1000 to 7940
4 | CCN(CC)c1ccc(NC(=O)c2cccc(CCCOCCOCCOCCOCCC(=O)N3CCN(S(=O)(=O)C(C)C)CC3)c2)c(-c2cc(C(=O)NCc3cccc(C(F)(F)F)c3)ccn2)c1 [Example 292, 2-(5-(diethylamino)-2-(3-(16-(4-(isopropylsulfonyl)piperazin-1-yl)-16-oxo-4,7,10,13-tetraoxahexadecyl)benzamido)phenyl)-N-(3-(trifluoromethyl)benzyl)isonicotinamide] | < 1000 | 1000 to 7940
5 | CCN(CC)c1ccc(NC(=O)c2cccc(C(=O)N(C)CCN(CCOC)CCOCCOCCOCCC(=O)NC(C)(C)C)c2)c(-c2cc(C(=O)NCc3cccc(C(F)(F)F)c3)ccn2)c1 [Example 337, N^1-(4-(Diethylamino)-2-(4-(3-(trifluoromethyl)benzylcarbamoyl)pyridin-2-yl)phenyl)-N3-(3-(2-methoxyethyl)-17,17-dimethyl-15-oxo-6,9,12-trioxa-3,16-diazaoctadecyl)-N^3-methylisophthalamide] | 1000 to 7940 | 1000 to 7940
6 | O=C(O)c1cccc(COCc2cccc(C(=O)Nc3ccc(N4CCCCC4)cc3-c3cc(C(=O)NCc4cccc(C(F)(F)F)c4)ccn3)c2)c1 [Example 185, 3-((3-(4-(piperidin-1-yl)-2-(4-(3-(trifluoromethyl)benzylcarbamoyl)pyridin-2-yl)phenylcarbamoyl)benzyloxy)methyl)benzoic acid] | < 1000 | 1000 to 7940
7 | CCN(CC)c1ccc(NC(=O)c2cccc(C#CCOCCOCCOCCOCCO)c2)c(-c2cc(C(=O)NCc3cccc(C(F)(F)F)c3)ccn2)c1 [Example 266, 2-(5-(diethylamino)-2-(3-(1-hydroxy-3,6,9,12-tetraoxapentadec-14-yn-15-yl)benzamido)phenyl)-N-(3-(trifluoromethyl)benzyl)isonicotinamide] | 1000 to 7940 | 1000 to 7940

Further lines, results first:

Row | IC50 (human NaP2b (SLC34A2)) [nM] | IC50 (rat NaP2b (SLC34A2)) [nM] | Compound
8 | < 1000 | < 1000 | CN(CCN1CCCN(C(=O)OC(C)(C)C)CC1)C(=O)c1cccc(C(=O)Nc2ccc(N3CCCCC3)cc2-c2cc(C(=O)N[C@H]3CCCc4ccccc43)ccn2)c1 [Example 219, (S)-tert-butyl 4-(2-(N-methyl-3-(4-(piperidin-1-yl)-2-(4-(1,2,3,4-tetrahydronaphthalen-1-ylcarbamoyl)pyridin-2-yl)phenylcarbamoyl)benzamido)ethyl)-1,4-diazepane-1-carboxylate]
9 | 1000 to 7940 | 1000 to 7940 | CN(CCN1CCOCC1)C(=O)c1cccc(C(=O)Nc2ccc(N3CCCCC3)cc2-c2cc(C(=O)NCc3ccc(C(C)(C)C)cc3)ccn2)c1 [Example 122, N1-(2-(4-((4-tert-butylbenzyl)carbamoyl)pyridin-2-yl)-4-(piperidin-1-yl)phenyl)-N3-methyl-N3-(2-morpholinoethyl)isophthalamide]
10 | 1000 to 7940 | 1000 to 7940 | CCN(CC)c1ccc(NC(=O)c2cccc(COCCOCCOCCOCCOCCOCCN(CCO)CCO)c2)c(-c2cc(C(=O)NCc3cccc(C(F)(F)F)c3)ccn2)c1 [Example 178, 2-(5-(diethylamino)-2-(3-(22-hydroxy-20-(2-hydroxyethyl)-2,5,8,11,14,17-hexaoxa-20-azadocosyl)benzamido)phenyl)-N-(3-(trifluoromethyl)benzyl)isonicotinamide]
11 | < 1000 | < 1000 | CCN(CC)c1ccc(NC(=O)c2cccc(CCCOCCOCCOCCOCCC(=O)O)c2)c(-c2cc(C(=O)N[C@H]3CCCc4ccccc43)ccn2)c1 [Example 302, (S)-16-(3-(4-(diethylamino)-2-(4-(1,2,3,4-tetrahydronaphthalen-1-ylcarbamoyl)pyridin-2-yl)phenylcarbamoyl)phenyl)-4,7,10,13-tetraoxahexadecan-1-oic acid]
12 | 1000 to 7940 | < 1000 | CCN(CC)c1ccc(NC(=O)c2cccc(C(=O)N(C)CCN(C)CCOCCOCCOCCNS(C)(=O)=O)c2)c(-c2cc(C(=O)N[C@H]3CCCc4ccccc43)ccn2)c1 [Example 226, 3-N-[4-(diethylamino)-2-(4-{[(1S)-1,2,3,4-tetrahydronaphthalen-1-yl]carbamoyl}pyridin-2-yl)phenyl]-1-N-(1-methanesulfonamido-12-methyl-3,6,9-trioxa-12-azatetradecan-14-yl)-1-N-methylbenzene-1,3-dicarboxamide]
13 | < 1000 | < 1000 | CN(CCO)C(=O)c1cccc(C(=O)Nc2ccc(N3CCCCC3)cc2-c2cc(C(=O)NC3CCCc4ccccc43)ccn2)c1 (stereo in doubt) [Example 115, (S)—N^1-(2-hydroxyethyl)-N′-methyl-N^3-(4-(piperidin]-yl)-2-(4-((1,2,3,4-tetrahydronaphthalen-1-yl)carbamoyl)pyridin-2-yl)phenyl)isophthalamide]
14 | < 1000 | < 1000 | CCN(CC)c1ccc(NC(=O)c2cccc(CCCOCCOCCOCCOCCOCCOCCC(=O)O)c2)c(-c2cc(C(=O)N[C@H]3CCCc4ccccc43)ccn2)c1 [Example 304, (S)-22-(3-(4-(diethylamino)-2-(4-(1,2,3,4-tetrahydronaphthalen-1-ylcarbamoyl)pyridin-2-yl)phenylcarbamoyl)phenyl)-4,7,10,13,16,19-hexaoxadocosan-1-oic acid]
15 | < 1000 | < 1000 | CN(CCN1CCOC[C@H]1C(=O)N(C)CCOCCOCCOCCC(=O)OC(C)(C)C)C(=O)c1cccc(C(=O)Nc2ccc(N3CCCCC3)cc2-c2cc(C(=O)N[C@H]3CCCc4ccccc43)ccn2)c1 [Example 242, tert-butyl 2-methyl-1-((S)-4-(2-(N-methyl-3-(4-(piperidin-1-yl)-2-(4-((S)-1,2,3,4-tetrahydronaphthalen-1-ylcarbamoyl)pyridin-2-yl)phenylcarbamoyl)benzamido)ethyl)morpholin-3-yl)-1-oxo-5,8,11-trioxa-2-azatetradecan-14-oate]

Reference: patent US20140023611A1 (priority 2010, published 2014)
